The test system of assay [1] is Drosophila. Kind of assay: Lifespan analysis of flies fed drug-supplemented adult medium. The class given is in vivo. The settings on record: for median lifespan of control flies versus dose / median lifespan of per^01 null mutants versus dose: varying concentrations fed during adulthood; for lifespan of per^01 mutants / median lifespan of per^01 null mutants versus dose: per^01 null mutants; for lifespan of per^01 mutants: dietary DNP or BHT; for lifespan: wild-type (control) male flies, dietary 2,4 DNP 0.01-0.1 mM or BHT 0.1-1 mM vs ethanol vehicle. As to the method:
Drosophila were reared from embryos in low-density bottles with standard medium containing 3.8% glucose, 1.9% sucrose, 3% yeast nutritional flake (Lab Scientific), 6.5% cornmeal, 0.8% agar, supplemented with 1.5% methylparaben mix (10% methylparaben in ethanol) and 1% propionic acid. Adult flies that eclosed within a 24 hour period were collected and transferred to “adult medium” containing 3.8% glucose, 1.9% sucrose, 8% cornmeal, 1% agar, and either 0.01%, 0.5%, 3%, 5%, or 10% yeast extract (Difco) supplemented with 1.5% methylparaben mix and 1% propionic acid for lifespan and biochemical analysis. All percentages given in wt/v except methylparaben mix, propionic acid given in v/v.
All drugs were supplemented into cooled (65° C.) liquid adult medium (containing 3% yeast extract) following preparation to the following final concentration(s): RU486 100μg/mL. RU486 (Cayman Chemical) dissolved in ethanol was supplemented into medium after eclosion at a final concentration of 100 μg/mL (with the exception of DaGS>UAS-Ucp4c and controls, 5 μg/mL) vehicle controls were supplemented with same volume of ethanol alone. Developmental induction was achieved by adding RU486 at concentration of 5 μg/mL, or ethanol vehicle, followed by adults being aged on standard food containing no RU486. For uncoupler feeding 2,4 DNP or BHT purchased from Sigma was dissolved in ethanol fresh at the time of making food and added in to the media, at the indicated concentrations. 2,4 DNP (0.01-0.1 mM) and BHT (0.1-1 mM).
(§1) Newly eclosed flies (˜24 hr) were collected and allowed to mate for 48 hr. Female and male flies were separated and maintained at a density of 30-35 flies per vial in a humidified, temperature-controlled (25° C.) incubator with a 12-hour light-dark cycle. For starvation analysis, flies were aged for 7 days in vials containing indicated diets and then transferred to 1% agar in a humidified, temperature-controlled incubator with 12-hour light-dark cycle at 25° C. Death was scored every 1-2 days, with live flies transferred to fresh vials every 2-3 days. Statistical significance was determined by log-rank analysis.

The test system of a further assay is ISC tumors. Kind of assay: Notch-RNAi induced ISC tumor formation (Esg^ts>UAS-Notch-RNAi flies). Format: in vivo, Drosophila. As to the method:
as §1
Ese^ts>UAS-Notch-RNAi flies were reared at 18° C. Upon eclosion flies were collected, sexed and placed on media containing 0.05 mM 2,4 DNP, or ethanol vehicle food at 30° C. Time-points of day 0, 8, and 16 days were taken. Intestines were dissected, fixed, and stained as above pHH3 protocol, with anti-GFP (cell signaling) and 1.5 μg/mL Hoechst stain. Quantification of GFP area was performed by using the ImageJ count particle tool in the GFP channel normalized to total area of the posterior midgut that was imaged. 7-13 guts were used for each condition and timepoint.

Assay [2] has as its system posterior midgut, ISCs/EBs. Nature of the assay: MitoSOX intestinal staining and esg+ cell quantification in posterior midguts of Esg-GAL4>GFP flies. Format: in vivo, Drosophila. As to conditions: Esg-GAL4>GFP flies fed DNP vs vehicle. As to the method: Flies were anesthetized on ice and intestines were dissected in cold Schneider's Medium (Thermo Fisher Scientific). Intestines were then incubated in 75 nM of TMRE (Thermo Fisher Scientific) in Schneider's Medium, for 10 min at room temperature. Samples were rinsed three times for 30 sec with a solution consisting of 20 nM of TMRE Schneider's Medium. For MitoSOX staining dissected intestines were immersed in 50 μM MitoSOX Red (Invitrogen) in Schneider's Medium for 5 min at room temp, then washed three times for 30 sec in Schneider's Medium. MitoSOX or TMRE samples were quickly mounted in Schneider's Medium containing 1.5 μg/mL Hoechst stain. Intestines were imaged within 20 min on a Ziess LSM800 confocal microscope. Z-stacks spanning the entire posterior midgut were taken. Quantification of TMRE or MitoSOX was performed using ImageJ in which mean fluorescent intensity values were quantified. TMRE foci were quantified using the ImageJ (Schneider et al. 2012) local maxima tool, using identical thresholding for all images. Foci number were normalized to the number of nuclei in the measured field of view. Quantification of MitoSOX output of ISCs/EBs was determined by mean intensity from individual Z-planes with regions of interest defined by esgGFP expression, cell size, and basal location within the intestinal epithelium. Mean intensity of MitoSOX fluorescence levels in all ISCs/EBs were averaged for each individual intestine. A minimum of 9 midguts were used for each genotype or drug treatment.

In assay [3] the test system is Drosophila. Nature of the assay: CO2 respiration assay after mitochondrial drug feeding. The class given is in vivo. The settings on record: 24 hr feeding; 500 μM Oligomycin, 1 mM rotenone, 5 mM 2,4 DNP, 0.5% stearate. As to the method:
Measurement of CO2 production was performed similarly to Yatsenko et al. 2014. Briefly, 10 flies were placed in a sealed pipette tip-capillary respirometer (without anesthesia) containing a small amount of soda-lime. Respirometers were placed capillary side down in dH20 containing 0.1% blue food dye in a sealed TLC chamber placed in a 25° C. incubator. Empty sealed respirometers (containing no flies) were used to subtract blue dye background migration from experimental (fly-containing) samples. Flies were tested for 2 hr between at circadian timepoints, and CO2 production rate was indirectly determined by the amount of liquid movement up the capillary per hour after background subtraction. At least 6 groups of 10 flies were used per genotype for quantification for each condition. For mitochondrial drug feeding experiments, flies were placed on food containing the following compounds for 24 hr: 500 μM Oligomycin, 1 mM rotenone, 5 mM 2,4 DNP, 0.5% stearate, or ethanol vehicle controls.

Each structure is given as a SMILES string. “Also recorded” adds a separate entry of the source.

Results on 6 molecules are retold here after US20210161937A1, “ACTIVATION OF MITOCHONDRIAL UNCOUPLING AS A THERAPEUTIC INTERVENTION” (The Trustees of Columbia University in the City of New York, priority 2018, published 2021).

Consider `Cc1cc(C(C)(C)C)c(O)c(C(C)(C)C)c1` [BHT, butylated hydroxytoluene], for which, in the assay on Drosophila [1], the “median lifespan of control flies versus dose” value is given as “increased their median lifespan in a dose-dependent manner”, the “lifespan of per^01 mutants” value was “did not extend the lifespan of per^01 mutants”, the “median lifespan of per^01 null mutants versus dose” value is recorded as “no median lifespan increase was observed” and the lifespan result is recorded as “extended the lifespan of wild-type male flies in a dose-dependent manner; also recorded: increased lifespan compared to vehicle-fed controls”.

With `O=[N+]([O-])c1ccc(O)c([N+](=O)[O-])c1` [DNP, 2,4-dinitrophenol], the “progression of ISC tumors (GFP+ area in the midgut)” value in the assay with ISC tumors (0.05 mM 2,4 DNP in media vs ethanol vehicle, 30° C., day 0, 8, 16) was “slowed the progression of ISC tumors; also recorded: delayed tumor formation”. For the same molecule, the “lifespan of flies with Notch-induced tumor formation” value in the assay on ISC tumors (dietary 2,4 DNP vs vehicle) is given as “extended the shortened lifespan of these animals; also recorded: extended lifespans”. In addition, in assay [2], the “age-related esg+ cell overproliferation (esg+ cell count)” value is “reduced”, the “mitochondrial ROS output of ISC/EB populations (MitoSOX staining in GFP-marked ISCs/EBs)” value was “reduced” and the “mitochondrial ROS output of the entire posterior midgut (MitoSOX staining)” value is given as “reduced”. In assay [2] (listed as 2,4 DNP), the “age-related esg+ cell overproliferation (esg+ cell count)” value is “fewer esg+cells”, the “mitochondrial ROS output of ISC/EB populations (MitoSOX staining in GFP-marked ISCs/EBs)” value is “decreased MitoSOX staining specifically in ISCs/EBs” and the “mitochondrial ROS output of the entire posterior midgut (MitoSOX staining)” value is listed as “decreased Mitosox staining of the entire posterior midgut”. For the same molecule, in the assay on Drosophila [1] (listed as 2,4 DNP), the “median lifespan of control flies versus dose” value was “increased their median lifespan in a dose-dependent manner”. In the assay with Drosophila [1], the “lifespan of per^01 mutants” value is on record as “did not extend the lifespan of per^01 mutants”, the “median lifespan of per^01 null mutants versus dose” value is listed as “no median lifespan increase was observed” and the lifespan entry is listed as “extended the lifespan of wild-type male flies in a dose-dependent manner”. For the same molecule, in the assay with Drosophila [3], the “respiration (relative CO2 production) of control flies” value is recorded as “increased the respiration of control flies to levels similar to those of per^01 mutants” and the “respiration (relative CO2 production) of per^01 mutants” value is listed as “did not increase the respiration of per^01 mutants”.

Turning to `CC#C[C@]1(O)CC[C@H]2[C@@H]3CCC4=CC(=O)CCC4=C3[C@@H](c3ccc(N(C)C)cc3)C[C@@]21C` [RU486, mifepristone], the “lifespan on RU486 administration (induces constitutive overexpression of UCPs)” value in the assay on Drosophila [1] (RU486-inducible UCP overexpression (DaGS>UAS-Ucp4C flies)) is recorded as “increased lifespan”.

`CC[C@H]1/C=C/C=C/C[C@@H](C)[C@H](O)[C@@](C)(O)C(=O)[C@@H](C)[C@H](O)[C@@H](C)C(=O)[C@@H](C)[C@H](O)[C@@H](C)/C=C/C(=O)O[C@@H]2[C@H](C)[C@H](CC1)O[C@]1(CC[C@H](C)[C@H](C[C@@H](C)O)O1)[C@H]2C` [oligomycin]: in the assay with Drosophila [3], the “respiration (relative CO2 production) of control flies” value was “inhibited the CO2 output of both control and per^01 animals to a similar degree”; the “respiration (relative CO2 production) of per^01 mutants” value is “inhibited the CO2 output of both control and per^01 animals to a similar degree”.

In the case of `C=C(C)[C@H]1Cc2c(ccc3c2O[C@@H]2COc4cc(OC)c(OC)cc4[C@@H]2C3=O)O1` [rotenone], in the assay with Drosophila [3], the “respiration (relative CO2 production) of control flies” value is “inhibited the CO2 output of both control and per^01 animals to a similar degree”; the “respiration (relative CO2 production) of per^01 mutants” value was “inhibited the CO2 output of both control and per^01 animals to a similar degree”.

On to `CCCCCCCCCCCCCCCCCC(=O)O` [stearic acid], for which, in the assay on Drosophila [3], the “respiration (relative CO2 production) of control flies” value is “increased the respiration of control flies to levels similar to those of per^01 mutants” and the “respiration (relative CO2 production) of per^01 mutants” value is recorded as “did not increase the respiration of per^01 mutants”.
